Legend:
rice = assay: Test B flooded paddy test; format: in vivo, Oryza sativa; conditions: 1000 g ai/ha, Flood; scale of 0 to 100 where 0 is no effect and 100 is complete control
How it was run: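 2-leaf plants; flood 3 cm over soil; compound into paddy water; depth held. Greenhouse 13–15 d. Visual rating vs controls, 0 (no effect) to 100 (complete control); dash = not tested.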

corn = assay: Test A pre-/postemergence herbicide test; format: in vivo, Zea mays
How it was run: (§1)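 Formulated compound (non-phytotoxic solvent, surfactant) sprayed pre- onto soil of seeded loam/sand pots or post- onto seedlings at 1–2 leaves; ~10 d greenhouse; 0–100 visual control rating versus untreated.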

johnsongrass = assay: Test C pre-/postemergence herbicide test; format: in vivo, Sorghum halepense; conditions: Preemergence; for Plant response rating, Johnsongrass: 125 g ai/ha; for Plant response rating (scale of 0 to 100), Johnsongrass: 250 g ai/ha
How it was run: (§2)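 Compound solutions contained surfactant in a non-phytotoxic solvent. These were sprayed onto pots of loam/sand sown with seeds, and onto young plants (2 to 18 cm, 1- to 4-leaf) in sphagnum peat–vermiculite mix. Visual injury scores (0 none, 100 complete control) were recorded after 13 to 15 days.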

oilseed rape = assay: Test C pre-/postemergence herbicide test; format: in vivo, Brassica napus; conditions: Preemergence; for Plant response rating, Oilseed Rape: 125 g ai/ha; for Plant response rating (scale of 0 to 100), Oilseed Rape: 250 g ai/ha
How it was run: as §2

giant foxtail = assay: Test A pre-/postemergence herbicide test; format: in vivo, Setaria faberii
How it was run: as §1

foxtail, giant = assay: Test C pre-/postemergence herbicide test; format: in vivo, Setaria faberii; conditions: Preemergence; for Plant response rating, Foxtail, Giant: 125 g ai/ha; for Plant response rating (scale of 0 to 100), Foxtail, Giant: 250 g ai/ha
How it was run: as §2

nutsedge, yellow = assay: Test C pre-/postemergence herbicide test; format: in vivo, Cyperus esculentus; conditions: Preemergence; for Plant response rating, Nutsedge, Yellow: 125 g ai/ha; for Plant response rating (scale of 0 to 100), Nutsedge, Yellow: 250 g ai/ha
How it was run: as §2

barnyardgrass = assay: Test A pre-/postemergence herbicide test; format: in vivo, Echinochloa crus-galli
How it was run: as §1

velvetleaf = assay: Test C pre-/postemergence herbicide test; format: in vivo, Abutilon theophrasti; conditions: Preemergence; for Plant response rating, Velvetleaf: 125 g ai/ha; for Plant response rating (scale of 0 to 100), Velvetleaf: 250 g ai/ha
How it was run: as §2

blackgrass = assay: Test C pre-/postemergence herbicide test; format: in vivo, Alopecurus myosuroides; conditions: Preemergence; for Plant response rating, Blackgrass: 125 g ai/ha; for Plant response rating (scale of 0 to 100), Blackgrass: 250 g ai/ha
How it was run: as §2

pigweed = assay: Test A pre-/postemergence herbicide test; format: in vivo, Amaranthus retroflexus
How it was run: as §1

[1] = Postemergence, 125 g ai/ha, 0 to 100 scale, 0 is no effect, 100 is complete control
[2] = Postemergence, 500 g ai/ha, 0 to 100 scale (0 no effect, 100 complete control)
[3] = Preemergence, 125 g ai/ha, 0 to 100 scale where 0 is no effect and 100 is complete control
[4] = preemergence, 500 g ai/ha, 0 to 100 scale, 0 is no effect and 100 is complete control
[5] = 31 g ai/ha, scale 0 to 100, 0 is no effect and 100 is complete control
[6] = 62 g ai/ha, scale 0 to 100 (0 no effect, 100 complete control)
[7] = scale 0 to 100 (0 no effect, 100 complete control)

O=C1NCC(c2ccc(C(F)(F)F)c(F)c2)C1C(=O)Nc1cccc(F)c1F (racemic) [Compound 247]
Plant response rating, Rice (rice): 0 | Plant response rating, Corn (corn; [1]): 0 | Plant response rating, Corn (corn; [2]): 20 | Plant response rating, Corn (corn; [3]): 0 | Plant response rating, Corn (corn; [4]): 0 | Johnsongrass plant response rating (johnsongrass; [5]): 0 | Johnsongrass plant response rating (johnsongrass; [6]): 0 | Plant response rating, Johnsongrass (johnsongrass; [7]): 10 | Plant response rating (scale of 0 to 100), Johnsongrass (johnsongrass): 5 | Oilseed Rape plant response rating (oilseed rape; [5]): 5 | Oilseed Rape plant response rating (oilseed rape; [6]): 30 | Plant response rating, Oilseed Rape (oilseed rape; [7]): 30 | Plant response rating (scale of 0 to 100), Oilseed Rape (oilseed rape): 80 | Plant response rating, Foxtail, Giant (giant foxtail; [1]): 50 | Plant response rating, Foxtail, Giant (giant foxtail; [2]): 80 | Plant response rating, Foxtail, Giant (giant foxtail; [3]): 80 | Plant response rating, Foxtail, Giant (giant foxtail; [4]): 90 | Foxtail, Giant plant response rating (foxtail, giant; [5]): 95 | Foxtail, Giant plant response rating (foxtail, giant; [6]): 95 | Plant response rating, Foxtail, Giant (foxtail, giant; [7]): 98 | Plant response rating (scale of 0 to 100), Foxtail, Giant (foxtail, giant): 100 | Nutsedge, Yellow plant response rating (nutsedge, yellow; [5]): 0 | Nutsedge, Yellow plant response rating (nutsedge, yellow; [6]): 20 | Plant response rating, Nutsedge, Yellow (nutsedge, yellow; [7]): 20 | Plant response rating (scale of 0 to 100), Nutsedge, Yellow (nutsedge, yellow): 0 | Plant response rating, Barnyardgrass (barnyardgrass; [1]): 60 | Plant response rating, Barnyardgrass (barnyardgrass; [2]): 80 | Plant response rating, Barnyardgrass (barnyardgrass; [3]): 90 | Plant response rating, Barnyardgrass (barnyardgrass; [4]): 90 | Velvetleaf plant response rating (velvetleaf; [5]): 0 | Velvetleaf plant response rating (velvetleaf; [6]): 20 | Plant response rating, Velvetleaf (velvetleaf; [7]): 30 | Plant response rating (scale of 0 to 100), Velvetleaf (velvetleaf): 25 | Blackgrass plant response rating (blackgrass; [5]): 0 | Blackgrass plant response rating (blackgrass; [6]): 50 | Plant response rating, Blackgrass (blackgrass; [7]): 60 | Plant response rating (scale of 0 to 100), Blackgrass (blackgrass): 70 | Plant response rating, Pigweed (pigweed; [1]): 0 | Plant response rating, Pigweed (pigweed; [2]): 0 | Plant response rating, Pigweed (pigweed; [3]): 0 | Plant response rating, Pigweed (pigweed; [4]): 0

O=C1NCC(c2ccc(C(F)(F)F)nc2)C1C(=O)Nc1ccccc1F (racemic) [Compound 262]
Plant response rating, Rice (rice): 0 | Plant response rating, Corn (corn; [1]): 0 | Plant response rating, Corn (corn; [2]): 0 | Plant response rating, Corn (corn; [3]): 0 | Plant response rating, Corn (corn; [4]): 0 | Johnsongrass plant response rating (johnsongrass; [5]): 0 | Johnsongrass plant response rating (johnsongrass; [6]): 0 | Plant response rating, Johnsongrass (johnsongrass; [7]): 0 | Plant response rating (scale of 0 to 100), Johnsongrass (johnsongrass): 0 | Oilseed Rape plant response rating (oilseed rape; [5]): 0 | Oilseed Rape plant response rating (oilseed rape; [6]): 35 | Plant response rating, Oilseed Rape (oilseed rape; [7]): 35 | Plant response rating (scale of 0 to 100), Oilseed Rape (oilseed rape): 70 | Plant response rating, Foxtail, Giant (giant foxtail; [1]): 60 | Plant response rating, Foxtail, Giant (giant foxtail; [2]): 70 | Plant response rating, Foxtail, Giant (giant foxtail; [3]): 80 | Plant response rating, Foxtail, Giant (giant foxtail; [4]): 90 | Foxtail, Giant plant response rating (foxtail, giant; [5]): 20 | Foxtail, Giant plant response rating (foxtail, giant; [6]): 70 | Plant response rating, Foxtail, Giant (foxtail, giant; [7]): 95 | Plant response rating (scale of 0 to 100), Foxtail, Giant (foxtail, giant): 95 | Nutsedge, Yellow plant response rating (nutsedge, yellow; [5]): 75 | Nutsedge, Yellow plant response rating (nutsedge, yellow; [6]): 0 | Plant response rating, Nutsedge, Yellow (nutsedge, yellow; [7]): 0 | Plant response rating (scale of 0 to 100), Nutsedge, Yellow (nutsedge, yellow): 0 | Plant response rating, Barnyardgrass (barnyardgrass; [1]): 60 | Plant response rating, Barnyardgrass (barnyardgrass; [2]): 70 | Plant response rating, Barnyardgrass (barnyardgrass; [3]): 80 | Plant response rating, Barnyardgrass (barnyardgrass; [4]): 90 | Velvetleaf plant response rating (velvetleaf; [5]): 0 | Velvetleaf plant response rating (velvetleaf; [6]): 0 | Plant response rating, Velvetleaf (velvetleaf; [7]): 0 | Plant response rating (scale of 0 to 100), Velvetleaf (velvetleaf): 0 | Blackgrass plant response rating (blackgrass; [5]): 0 | Blackgrass plant response rating (blackgrass; [6]): 0 | Plant response rating, Blackgrass (blackgrass; [7]): 0 | Plant response rating (scale of 0 to 100), Blackgrass (blackgrass): 0 | Plant response rating, Pigweed (pigweed; [1]): 0 | Plant response rating, Pigweed (pigweed; [2]): 0 | Plant response rating, Pigweed (pigweed; [3]): 50 | Plant response rating, Pigweed (pigweed; [4]): 70

O=C1NCC(c2ccc(C(F)(F)F)nc2)C1C(=O)Nc1cccc(F)c1F (racemic) [Compound 263]
Plant response rating, Rice (rice): 0 | Plant response rating, Corn (corn; [1]): 40 | Plant response rating, Corn (corn; [2]): 60 | Plant response rating, Corn (corn; [3]): 0 | Plant response rating, Corn (corn; [4]): 70 | Johnsongrass plant response rating (johnsongrass; [5]): 5 | Johnsongrass plant response rating (johnsongrass; [6]): 0 | Plant response rating, Johnsongrass (johnsongrass; [7]): 0 | Plant response rating (scale of 0 to 100), Johnsongrass (johnsongrass): 0 | Oilseed Rape plant response rating (oilseed rape; [5]): 40 | Oilseed Rape plant response rating (oilseed rape; [6]): 60 | Plant response rating, Oilseed Rape (oilseed rape; [7]): 60 | Plant response rating (scale of 0 to 100), Oilseed Rape (oilseed rape): 90 | Plant response rating, Foxtail, Giant (giant foxtail; [1]): 80 | Plant response rating, Foxtail, Giant (giant foxtail; [2]): 90 | Plant response rating, Foxtail, Giant (giant foxtail; [3]): 90 | Plant response rating, Foxtail, Giant (giant foxtail; [4]): 100 | Foxtail, Giant plant response rating (foxtail, giant; [5]): 65 | Foxtail, Giant plant response rating (foxtail, giant; [6]): 95 | Plant response rating, Foxtail, Giant (foxtail, giant; [7]): 98 | Plant response rating (scale of 0 to 100), Foxtail, Giant (foxtail, giant): 98 | Nutsedge, Yellow plant response rating (nutsedge, yellow; [5]): 0 | Nutsedge, Yellow plant response rating (nutsedge, yellow; [6]): 0 | Plant response rating, Nutsedge, Yellow (nutsedge, yellow; [7]): 100 | Plant response rating (scale of 0 to 100), Nutsedge, Yellow (nutsedge, yellow): 0 | Plant response rating, Barnyardgrass (barnyardgrass; [1]): 70 | Plant response rating, Barnyardgrass (barnyardgrass; [2]): 80 | Plant response rating, Barnyardgrass (barnyardgrass; [3]): 80 | Plant response rating, Barnyardgrass (barnyardgrass; [4]): 90 | Velvetleaf plant response rating (velvetleaf; [5]): 5 | Velvetleaf plant response rating (velvetleaf; [6]): 5 | Plant response rating, Velvetleaf (velvetleaf; [7]): 20 | Plant response rating (scale of 0 to 100), Velvetleaf (velvetleaf): 5 | Blackgrass plant response rating (blackgrass; [5]): 0 | Blackgrass plant response rating (blackgrass; [6]): 0 | Plant response rating, Blackgrass (blackgrass; [7]): 40 | Plant response rating (scale of 0 to 100), Blackgrass (blackgrass): 70 | Plant response rating, Pigweed (pigweed; [2]): 70 | Plant response rating, Pigweed (pigweed; [3]): 60 | Plant response rating, Pigweed (pigweed; [4]): 100

— patent publication US10294202B2, “Pyrrolidinones as herbicides” (FMC Corporation, priority 2013, dated 2019)
